Assay results published in PubChem BioAssay (NCI).
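Five concentrations, 48 hours, 96-well plates. Abbreviation: GI50, concentration required for 50% inhibition of growth. The concentration for full growth arrest is given as TGI.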 Where a SMILES comes first, the peptide text is derived from it.

Legend:
Test in all cases: NCI tumour cell line growth inhibition, 48 h
[1] = test system: RXF-631 renal
[2] = test system: DMS 114 small cell lung
[3] = test system: M19-MEL melanoma
[4] = test system: DMS 273 small cell lung
[5] = test system: XF 498 CNS
[6] = test system: DLD-1 colon
[7] = test system: PC-3 prostate
[8] = test system: MDA-N
[9] = test system: BT-549 breast
[10] = test system: SN12K1 renal
[11] = test system: P388 leukemia

Compound | TGI [1] [µM] | GI50 [2] [µM] | TGI [3] [µM] | GI50 [4] [µM] | TGI [4] [µM] | TGI [5] [µM] | TGI [6] [µM] | TGI [2] [µM] | TGI [7] [µM] | TGI [8] [µM] | TGI [9] [µM] | TGI [10] [µM] | TGI [11] [µM]
CN(C)C(=O)/N=c1\ss/c(=N\C(=S)N(C)C)n1-c1ccccc1 | > 100 | 0.0334 | > 100 | 30 | > 100 | > 85.4 | > 100 | – | – | – | – | – | –
C/C=C/C=N/N(C(=O)c1cc([N+](=O)[O-])cc([N+](=O)[O-])c1)C1=NC(c2ccccc2)C(c2ccccc2)=NN1 (stereo not drawn) | > 100 | – | 46.2 | – | > 100 | > 100 | > 100 | 48.4 | – | – | – | – | –
COC(=O)C1(C(=O)OC)CC2c3c(c4ccccc4n3C)CC(C1=O)N2Cc1ccccc1 (stereo not drawn) | > 100 | – | > 100 | – | > 100 | > 100 | > 100 | > 100 | – | – | – | – | –
CC(C)CC(NC(=O)C(CC(C)C)NC(=O)C(Cc1cnc[nH]1)NC(=O)C(C)NC(=O)C(NC(=O)C(C)NC(=O)C(Cc1c[nH]c2ccccc12)NC(=O)C(CCC(=O)O)NC(=O)C(N)Cc1ccccc1)C(C)C)C(N)=O (stereo not drawn) (H-FEWAVAHLL-NH2; configuration not given here) | > 100 | – | > 100 | – | > 100 | > 100 | > 100 | > 100 | > 12.5 | > 12.5 | – | – | –
CC(=O)O[C@H]1C(=O)O[C@@H]2C[C@H]3C(C)=CC(=O)[C@@H](O)[C@]3(C)[C@H]3[C@@]4(O)OC[C@]32[C@@H]1[C@@H](C)[C@H]4O | – | – | 0.072 | – | 0.0682 | 0.243 | 0.403 | 0.041 | 0.137 | 0.127 | 0.513 | 0.0696 | 0.555
CNNCc1ccc(C(=O)NC(C)C)cc1 | – | – | > 500 | – | > 500 | > 500 | > 500 | – | > 500 | > 500 | > 500 | > 456 | > 500
C#CCOCn1cnc2c(=S)nc[nH]c21 | > 100 | – | > 100 | – | > 100 | > 100 | > 100 | > 100 | – | – | – | – | –
C=C[C@]1(C)CCC2=C(CCC3C2(C)CCC[C@]3(C)CO)C1 (stereo partly drawn) | > 100 | – | > 100 | – | > 100 | > 100 | > 100 | 74.6 | – | – | – | – | –
